Experimental data: US20250177392A1, “BROAD SPECTRUM INHIBITORS OF CYTOMEGALOVIRUS” (MICROBIOTIX, INC., priority 2022, published 2025)

Key:
TB40/E = experiment: Plaque assay, MBX-4992 and ganciclovir alone and in combination; assay type: cell-based, Human cytomegalovirus; conditions: ARPE-19 and NHDF cells, 10 dpi; MBX-4992 1-20 μM, ganciclovir 2.5 μM
Method: At 10 day post-infection, representative whole well images of plaques >10,000 μm^2 (A and B) were quantified based on GFP fluorescence intensity and calculated relative to DMSO controls (C and D). Statistical tests were performed using ordinary one-way ANOVA with multiple comparisons to DMSO treated cells as a control and a Dunnett's post-test. *, p<0.05; **, p<0.01; ***, p<0.001; ****, p<0.0001.
At 10 days post-infection, representative whole well images of plaques >10,000 μm^2 (A and B) were quantified based on GFP fluorescence intensity and calculated relative to DMSO controls (C and D).

[1] = Cytotoxicity (CC50) against Hela cells for 3 d; assay type: cell-based; conditions: human
[2] = Murine liver microsome stability; assay type: in vitro ADME; conditions: % remaining after 30 min at 37° C. in the presence of NADPH
HHV-6B Z29 = experiment: Herpes virus panel neutralization, HHV-6B; assay type: cell-based, Human herpes virus 6B
Method: (§1) To determine the specificity of MBX-4992, additional neutralization experiments were conducted using a panel of herpes viruses performed in the presence of MBX-4992. […] Collectively, the antiviral activity of MBX-4992 is equivalent to that of GCV indicating specific inhibition of CMV replication.

HSV-2 G = experiment: Herpes virus panel neutralization, HSV-2; assay type: cell-based, Herpes simplex virus 2
Method: as §1

[3] = Maximum solubility in water by nephlometry; assay type: physicochemical; conditions: Maximum solubility in water determined by nephlometry
[4] = test system: CMV strains AD169^R and TB40/E; experiment: CMV infection assay, strains AD169^R and TB40/E together; assay type: cell-based, Human cytomegalovirus
AD169 and AD169^R = experiment: IE1 expression 2 days post-infection in fibroblasts; assay type: cell-based, Human cytomegalovirus
Method: HCMV strains AD169^R (A) and AD169 (B) infection (MOI 0.2) of NHDF cells pre-treated with 0, 5, and 20 μM MBX-4992 were assessed at 1 dpi or 2 dpi based on IE1 expression by anti-IE1 immunostain. The % infection was determined using DMSO-treated as 100% infection. The error bars represent values in triplicate. Statistical tests were performed using ordinary one-way ANOVA with multiple comparisons to DMSO treated cells as a control and a Dunnett's post-test; **, p<0.01; ****, p<0.0001. (C) Total cell lysates from AD169^R-infected (MOI 0.2) ARPE-19 cells pre-treatment with DMSO, MBX-4992 (1-20 μM) or heparin (50 μg/mL) collected at 24 hpi were subjected to Western blot analysis using a rabbit anti-IE-1 antibody (lanes 1-7) and an anti-GAPDH antibody (lanes 8-14) as a loading control. The molecular weight markers and respective proteins are indicated.
(FIG. 11A-G). […] The IC50 values were similar in diverse cell types and among the different strains further supporting that NAPA compounds are effective at inhibiting CMV infection.

HHV-8 BCBL-1 = experiment: Herpes virus panel neutralization, HHV-8; assay type: cell-based, Human herpes virus 8
Method: as §1

[5] = test system: CMV strains AD169, TB40/E^Flag-YFP, Towne, and TR; experiment: CMV infection assay, panel of strains in fibroblasts; assay type: cell-based, Human cytomegalovirus; conditions: Human betaherpesvirus 5, AD169, Fibroblast, read-out: IC50 values ranging
Method: HCMV strains AD169 (A), TB40/E Flag YFP (B), Towne (C and G), TR (D and F), Merlin (E), and TB40/E (H) infection of NHDF cells pre-treated with DMSO and 0, 1, 5, or 20 μM MBX-4992 or MBXC-4336, respectively, were assessed at 24 hpi based on IE1 expression by anti-IE1 immunostain. TB40/E (I) (MOI 0.25) and AD169^R (J) (MOI 0.25) infection of HTR-svNeo cells treated with DMSO and 0, 1, 5, or 20 μM MBX-4992 were assessed at 24 hpi based on IE1 expression by anti-IE1 immunostain. The % infection was determined using DMSO-treated as 100% infection. The error bars represent values in triplicate. Statistical tests were performed using ordinary one-way ANOVA with multiple comparisons to DMSO treated cells as a control and a Dunnett's post-test *, p<0.05; **, p<0.01; ****, p<0.0001.
Fibroblasts and ARPE-19 cells (10^4) were plated in 96-well plates (Greiner, Monroe, NC). […] At 18 hours post infection (hpi) cells were stained using a rabbit anti-IE1 antibody followed by an anti-rabbit Alexa 647 and measured using a Celigo Cytometer (Parsons et al., Antiviral Res., 193:105124 (2021); Stein et al., Nat. Commun., 10:2699 (2019)). Using the DMSO treated cells as 100% infection, the percent infection of the NAPA compound-treated cells was determined. […]

HCMV AD169 = experiment: Herpes virus panel neutralization, HCMV AD169; assay type: cell-based, Human cytomegalovirus
Method: as §1

VZV Ellen = experiment: Herpes virus panel neutralization, VZV; assay type: cell-based, Varicella-Zoster virus
Method: as §1

HCMV GDGr K17 (GCV^R) = experiment: Herpes virus panel neutralization, GCV-resistant HCMV; assay type: cell-based, Human cytomegalovirus
Method: as §1

HCMV strain AD169^R = experiment: CMV infection (neutralization) assay, GFP/IE1 readout 24 hpi, AD169^R; assay type: cell-based, Human cytomegalovirus; conditions: Human betaherpesvirus 5, AD169, Fibroblast
Method: Fibroblasts and ARPE-19 cells (10^4) were plated in 96-well plates (Greiner, Monroe, NC). The following day the cells were pretreated for 1 hour at 37° C. with increasing concentrations of the respective novel NAPA compounds described herein or DMSO in triplicate prior to infection with the respective viruses. At 18 hours post infection (hpi) cells were stained using a rabbit anti-IE1 antibody followed by an anti-rabbit Alexa 647 and measured using a Celigo Cytometer (Parsons et al., Antiviral Res., 193:105124 (2021); Stein et al., Nat. Commun., 10:2699 (2019)). Using the DMSO treated cells as 100% infection, the percent infection of the NAPA compound-treated cells was determined. The half maximal inhibitory (IC50) values were calculated using Prism9's nonlinear fit [inhibitor]-vs-response (four parameters) analysis of these averages and extrapolation to the concentration that would produce 50% infection relative to DMSO treatment.
To further evaluate the inhibitory properties of MBXC-4302 against CMV, we utilized the AD169 CMV virus strain containing the UL131-UL128 open reading frame of the HCMV strain TR and expressing EGFP (AD169^R) (Wang D. and Shenk T., Proc. Nat. Acad. Sci., USA, 102:18153-18158 (2005)) and TB40/E infection of human fibroblasts (NHDF) and ARPE-19 epithelial cells in the presence of increasing concentration of compound (FIG. 2A-D). Infection was analyzed 24 hours post infection (hpi) by measuring GFP fluorescence encoded by AD169^R or using an anti-IE1 antibody for staining TB40/E infected cells.
NAPA variants with modified groups were evaluated for inhibition of CMV infection in fibroblasts. AD169^R infected fibroblasts were treated with NAPA compounds MBX-4992, MBXC-4325, MBXC-4330, and MBXC-4336 (0-50 μM) and analyzed for infection at 24 hpi (FIG. 6A-D). The infected cells were probed for IE1 as an indication of virus infection.

Cc1nc(Nc2ccc(NC(=O)c3ccco3)cc2)cc(N2CCCC2)n1 [MBX-4992]
viral plaques >10,000 μm^2, single drug (TB40/E): decreased | CC50 at 3 d [1]: > 100 µM | MLMS [2]: 49% | SI (HHV-6B Z29): >2 | IC50 (HHV-6B Z29; Human betaherpesvirus 6B): 43.7 µM | SI (HSV-2 G): 1 | IC50 (HSV-2 G; Human alphaherpesvirus 2): > 150 µM | Sol [3]: high solubility | solubility kinetic ([3]; kinetic from dmso stock): > 200 µM | infection of trophoblasts ([4]; HRT8svNEO trophoblasts, 24 hpi, IE1 immunostain): limited infection | IC50 ([4]; Human betaherpesvirus 5, AD169, read-out: IC50 values ranging): 1.9 to 4.8 µM | IE1 expression (AD169 and AD169^R): similarly effective at limiting IE1 expression | SI (HHV-8 BCBL-1): >10 | IC50 (HHV-8 BCBL-1; Homo sapiens, BCBL1): 10 µM | IC50 [5]: 0.5 to 8 µM | SI (HCMV AD169; HCMV AD169): >88 | IC50 (HCMV AD169; Human betaherpesvirus 5, AD169): 1.7 µM | SI (VZV Ellen): <5 | IC50 (VZV Ellen; Human alphaherpesvirus 3): > 30 µM | SI (HCMV GDGr K17 (GCV^R); HCMV GDGr K17 (GCV^R)): >83 | IC50 (HCMV GDGr K17 (GCV^R); Human betaherpesvirus 5): 1.8 µM

Cc1nc(Nc2cccc(NC(=O)c3ccco3)c2)cc(N2CCCCC2)n1 [MBXC-4336]
IC50 (HCMV strain AD169^R): 2.9 µM
